Laboratory results as given in article PMC11940343, “In Vitro and In Vivo Evaluation of the De Novo Designed Antimicrobial Peptide P6.2 Against a KPC-Producing P. aeruginosa Clinical Isolate” (Biomolecules, 2025).
In brackets after ≈: the same amount, converted by molar mass. Read-outs that look alike come from different tables or passages of the source.

How the values were obtained:
[1] = test system: Pseudomonas aeruginosa M13513; assay: MIC by broth microdilution (CLSI); format: cell-based; details: two consecutive values shown where replicates varied by one dilution
Text: Pseudomonas aeruginosa M13513 is a clinical isolate carrying the carbapenemase KPC-2 (blaKPC-2 gene). This strain was generously supplied by the Servicio Antimicrobianos, Instituto Nacional de Enfermedades Infecciosas (INEI)-ANLIS “Dr. Carlos G. Malbrán” in Buenos Aires, Argentina.
For antimicrobial testing, bacterial cultures were maintained in Cation-Adjusted Mueller–Hinton Broth (CAMHB), following Clinical and Laboratory Standards Institute (CLSI) guidelines.
The minimal inhibitory concentration was assessed using a standard microdilution assay, following CLSI guidelines. Mueller–Hinton Broth (Laboratorios Britania S.A., Buenos Aires, Argentina) supplemented with Ca^2+ (20–25 mg/L) and Mg^2+ (10–12.5 mg/L) was used for the assay. The bacterial strains tested included Pseudomonas aeruginosa PAO1, Pseudomonas aeruginosa M13513, and Staphylococcus aureus ATCC® 25923.

Gram-negative bacteria = details: cited from earlier work
Text: This resistance arises from enzymatic inactivation by carbapenemases, as mentioned before, decreased cellular entry due to reduced expression of the outer membrane porins, and increased expression of efflux pumps.

[2] = Pseudomonas aeruginosa, M13513, CAMHB, read-out: MIC

| MIC ([1]; CAMHB) | MIC [1, 2] | Molecule | other results |
| --- | --- | --- | --- |
| 512/1024 |  | C[C@@H](O)[C@H]1C(=O)N2C(C(=O)O)=C(S[C@@H]3CN[C@H](C(=O)N(C)C)C3)[C@H](C)[C@H]12 [Meropenem, meropenem] |  |
| 256/512 |  | C[C@@H](O)[C@H]1C(=O)N2C(C(=O)O)=C(SCCN=CN)C[C@H]12 [Imipenem] |  |
|  |  | polymyxin B | interaction with meropenem (Gram-negative bacteria): displays synergy with meropenem |
|  | 1 µg/mL (≈ 2.14 µM) | NC[C@H]1O[C@H](O[C@H]2[C@H](O)[C@@H](O[C@H]3O[C@H](CO)[C@@H](O)[C@H](N)[C@H]3O)[C@H](N)C[C@@H]2N)[C@H](N)C[C@@H]1O [Tobramycin] |  |
|  | 2 µg/mL (≈ 4.19 µM) | CNC(C)C1CCC(N)C(OC2C(N)CC(N)C(OC3OCC(C)(O)C(NC)C3O)C2O)O1 (centres unmarked) [Gentamicin] |  |
